According to patent publication EP0171342A1, “Substituted 2-(1-amino-akylidenyl)1,3-indane diones, process for their preparation and their therapeutical use” (priority 1984, dated 1986):
Converted amounts (≈) assume the structure as drawn. Read-outs that look alike come from different tables or passages of the source.

Key:
[1] = test system: rat Wistar soumis à une surcharge saline; experiment: Diuretic activity in selected Wistar rats given a saline overload (modified Wiebelhaus test); type: in vivo
Protocol: L'activité diurétique des produits selon l'invention a été également déterminée chez le rat Wistar soumis à une surcharge saline selon une modification du test décrit par Wiebelhaus et coll., Fed. Proc., 1960, 19, 364, en procédant à une sélection des animaux. A la dose de 20 mg/kg, les COR4003, COR4008, COR4009, COR4010, COR4011, COR4012, COR4014, COR4016, COR4021, COR4025 augmentent l'excrétion urinaire volumétrique mesurée au bout de 6 heures de respectivement 56, 54, 65, 95, 73, 54, 33, 40, 99 et 92 %. L'excrétion urinaire du sodium augmente de respectivement 56, 24, 42, 59, 43, 33, 29, 43, 31, 83, 26, 99, 40 % toujours à cette dose pour les COR4003, COR4008, COR4009, COR4010, COR4011, COR4012, COR4014, COR4016, COR4017, COR4021, COR4023, COR4025 et COR4026. Le rapport Na/K demeure la plupart du temps inchangé. Testé dans les mêmes conditions le furosémide, administré à la dose de 20 mg/kg entraine 63% d'augmentation de l'excrétion urinaire volumétrique et 53% d'augmentation de l'excrétion urinaire du sodium.

[2] = Acute toxicity (mortality, LD50) in mice; type: in vivo; details: in vivo, mouse, read-out: mortalité
souris = experiment: Acute toxicity (mortality, LD50) in mice; type: in vivo; details: mouse
[3] = test system: oedème induit par l'injection intraplantaire de carragénine chez le rat; experiment: Anti-inflammatory activity: carrageenan paw oedema in rats; type: in vivo; details: oral 1 h before carrageenan, measured 3 h after
Protocol: L'activité antiinflammatoire a été déterminée chez le rat par la mesure de l'inhibition de l'oedème induit par l'injection intraplantaire de 0,1 ml d'une suspension à 1% de carragénine chez le rat. Les produits à tester sont administrés par voie orale lh avant l'injection de carragénine et la mesure est réalisée 3h après cette injection. Les COR3789, COR3792, COR4003, COR4008 et COR4010 administrés à 10b mg/kg entrainent respectivement 43, 42, 41, 38 et 39% d'inhibition. Administré à 200 mg/kg, le COR3773 entraine 53% d'inhibition. L'aspirine administrée dans les mêmes conditions à 150 mg/kg entraine 40% d'inhibition de l'oedème.

[4] = test system: rat soumis à une surcharge hydrique; experiment: Diuretic activity in rats given a water overload, oral; type: in vivo; details: read-out: facteur multipliant l'excrétion urinaire du sodium
Protocol: L'activité diurétique a été déterminée sur plusieurs modèles expérimentaux. Chez le rat soumis à une surcharge hydrique, administrés par voie orale à la dose de 20 mg/kg, le COR3760, le COR3789, le COR3792, le COR4002, le COR4003, le COR4009, le COR4010, le COR4012 et le COR4014 multiplient l'excrétion urinaire du sodium par respectivement un facteur 2,9 - 3,1 - 5,9 - 2,6 - 7,2 - 3,5 - 3,8 - 2,9 - 2,4. Administrés à la dose de 10 mg/kg, dans les mêmes conditions, les COR3760, COR3789, COR3792, COR4003 et COR4010 multiplient l'excrétion sodique par respectivement 2,3 - 2,9 - 2,8 - 2,4 et 2,5. La spironolactone multiplie quant à elle l'excrétion sodique d'un facteur 3,6 à la dose de 20 mg/kg. Administré à la dose de 5 mg/kg dans les mêmes conditions, le COR3792 multiplie l'excrétion sodique par 3,3. Administré par voie orale chez le rat ou la souris soumis à une surcharge saline, le COR3760 augmente l'excrétion urinaire volumétrique mesurée à la sixième heure de respectivement 49, 119 et 134% chez la souris et 28, 84 et 116% chez le rat après administration de 10, 20, et 40 mg/kg. Le COR3760 a été administré par voie orale au rat soumis à une surcharge hydrique et l'excrétion urinaire volumétrique, le sodium et le potassium excrétés ont été mesurés sur une période de 6 heures; ces paramètres ont varié de respectivement +17%, +102%, +165% à 10 mg/kg, +19%, +147%, +180% à 20 mg/kg et +36%, +415% et +239% à 40 mg/kg; le rapport Na/K passe de 0,56 chez les animaux témoins à 0,4 à 10 mg/kg, 0,49 à 20 mg/kg et 0, 8 à 40 mg/ kg. Au cours d'une seconde expérimentation, le COR3760 a entrainé des variations de +19%, +157%, +70% à 40 mg/kg, +19%, +319%, +90% à 60 mg/kg et +29%, +472% et +77% à 80 mg/kg; le rapport Na/K passe de 0,59 chez les animaux témoins à 0,88 à 40, 1,15 à 60 et 1,88 à 80 mg/kg.

[5] = test system: segments d'iléon de cobaye isolés; experiment: Anticholinergic activity: acetylcholine-induced contractions of isolated guinea pig ileum; details: Cavia porcellus; contractions induced by 0,1 microg/ml acetylcholine; read-out: concentration qui inhibe ces contractions de 80%
Excerpt: L'activité anticholinergique a été appréciée par la mesure des contractions induites par 0,1 microg/ml d'acétylcholine sur des segments d'iléon de cobaye isolés. Les COR3760, COR3789, COR3792, COR4003, COR4008, COR4010, COR4014 utilisés respectivement aux concentrations de 50, 25, 25, 50, 25, 10, 25 microg/ml inhibent ces contractions de 80%.

[6] = test system: poumon de cobaye isolé perfusé; experiment: Bronchodilator activity: isolated perfused guinea pig lung contracted by methacholine; details: flow of Tyrode solution, lung contracted by 0,05 microg/ml methacholine; read-out: concentration qui augmente ce débit de 50%
Excerpt: L'activité bronchodilatatrice a été déterminée in vitro par la mesure du débit d'une solution de Tyrode à travers un poumon de cobaye isolé perfusé, contracté par l'addition au fluide de perfusion de 0,05 microg/ml de méthacholine. Les COR3760, COR3789, COR3792, COR4003, COR4008, COR4010 et COR4014 utilisés respectivement aux concentrations de 50, 50, 100, 10, 50, 50 et 10 microg/ml augmentent ce débit de 50%. L'aminophylline entraine cette même activité à la concentration de 100 microg/ml.

[7] = read-out: augmentation de l'excrétion urinaire du sodium
[8] = 6 h, read-out: augmentation de l'excrétion urinaire volumétrique mesurée au bout de 6 heures
[9] = rat, water overload, oral, 20 mg/kg

| SMILES | change in vivo at 20 mg/kg [1, 7] [%] | change in vivo at 20 mg/kg [1, 8] [%] | mortalité (souris; intraperitoneal, 200 mg/kg) | mortalité (souris; oral, 300 mg/kg) | further results |
| --- | --- | --- | --- | --- | --- |
| CC(N)=C1C(=O)c2ccccc2C1=O [COR4026, (Amino-1 éthylidényl)-2 indanedione-1,3] | 40 |  |  |  |  |
| CC(NC(C)(C)C)=C1C(=O)c2ccccc2C1=O [COR4001, (Tertiobutylamino-1 éthylidényl)-2 indanedione-1,3] |  |  |  |  | mortality ([2]; ip, intraperitoneal, 200 mg/kg): 100%; mortality ([2]; oral, 300 mg/kg): 100%; mortalité (souris; intraperitoneal, 100 mg/kg): aucune mortalité; mortalité (souris; oral, 100 mg/kg): aucune mortalité |
| CCNC(CC)=C1C(=O)c2ccccc2C1=O [COR4021, (Ethylamino-1 propylidényl)-2 indanedione-1,3] | 83 | 99 |  |  |  |
| CC(=C1C(=O)c2ccccc2C1=O)N(C)C [COR3788, (Diméthylamino-1 éthylidène)-2 indanedione-1,3] |  |  |  |  | mortality ([2]; ip, intraperitoneal, 200 mg/kg): 100%; mortality ([2]; oral, 300 mg/kg): 100%; mortalité (souris; intraperitoneal, 100 mg/kg): aucune mortalité |
| CC(=O)Oc1ccccc1C(=O)O [aspirine, reference compound] |  |  |  |  | inhibition de l'oedème ([3]; 150 mg/kg): 40% |
| CC(=O)S[C@@H]1CC2=CC(=O)CC[C@]2(C)[C@H]2CC[C@@]3(C)[C@@H](CC[C@@]34CCC(=O)O4)[C@H]12 [spironolactone, reference compound] |  |  |  |  | response vs control in vivo at 20 mg/kg ([4]; Rattus norvegicus, po): 360% |
| CC(=O)NS(=O)(=O)c1cc2c(cc1Cl)C(=O)C(=C(C)NC(C)C)C2=O [COR4015, N-acétylsulfonamido-6 chloro-5 (isopropylamino-1 éthylidényl)-2 indanedione-1,3] |  |  | aucune mortalité | aucune mortalité |  |
| CC(NC1CC1)=C1C(=O)c2ccccc2C1=O [COR4014, (Cyclopropylamino-1 éthylidényl)-2 indanedione-1,3] | 29 | 33 | aucune mortalité | aucune mortalité | IC80 [5]: 25 µg/mL (≈ 110 µM); response vs control in vivo at 20 mg/kg [4, 9]: 240%; EC50 [6]: 10 µg/mL (≈ 44 µM) |
| NS(=O)(=O)c1cc(C(=O)O)c(NCc2ccco2)cc1Cl [furosémide, reference compound] | 53 | 63 |  |  |  |
| CC(NC1CCCCC1)=C1C(=O)c2ccccc2C1=O [COR4013, (Cyclohexylamino-1 éthylidényl)-2 indanedione-1,3] |  |  | aucune mortalité | aucune mortalité |  |
| CCC(NC(C)C)=C1C(=O)c2ccccc2C1=O [COR4025, (Isopropylamino-1 propylidényl)-2 indanedione-1,3] | 99 | 92 |  |  |  |
| CCNC(C)=C1C(=O)c2ccc(Cl)cc2C1=O [COR3774, Chloro-5 (éthylamino-1 éthylidène)-2 indanedione-1,3] |  |  | aucune mortalité | aucune mortalité |  |
| CCCC(NC)=C1C(=O)c2ccccc2C1=O [COR4017, (Méthylamino-1 butylidényl)-2 indanedione-1,3] | 31 |  |  |  |  |
| Cn1c(=O)c2[nH]cnc2n(C)c1=O [aminophylline, reference compound] |  |  |  |  | EC50 [6]: 100 µg/mL (≈ 555 µM) |
| CC(NCC(C)C)=C1C(=O)c2ccccc2C1=O [COR4008, (Isobutylamino-1 éthylidényl)-2 indanedione-1,3] | 24 | 54 | aucune mortalité | aucune mortalité | IC80 [5]: 25 µg/mL (≈ 103 µM); inhibition de l'oedème ([3]; dose 10b mg/kg [sic]): 38%; EC50 [6]: 50 µg/mL (≈ 206 µM) |
| CC(NC1CCCC1)=C1C(=O)c2ccccc2C1=O [COR4012, (Cyclopentylamino-1 éthylidényl)-2 indanedione-1,3] | 33 | 54 | aucune mortalité | aucune mortalité | response vs control in vivo at 20 mg/kg [4, 9]: 290% |
| CNC(C)=C1C(=O)c2ccc([N+](=O)[O-])cc2C1=O [COR4002, Nitro-5 (méthylamino-1 éthylidényl)-2 indanedione-1,3] |  |  |  |  | mortality ([2]; ip, intraperitoneal, 200 mg/kg): 100%; mortality ([2]; oral, 300 mg/kg): 100%; mortalité (souris; intraperitoneal, 100 mg/kg): aucune mortalité; mortalité (souris; oral, 100 mg/kg): aucune mortalité; response vs control in vivo at 20 mg/kg [4, 9]: 260% |
| CC(C)NC(=C1C(=O)c2ccccc2C1=O)C(C)C [COR4023, (Isopropylamino-1 isobutylidényl)-2 indanedione-1,3] | 26 |  |  |  |  |
| CNC(=C1C(=O)c2ccccc2C1=O)c1ccccc1 [COR4004, (Alpha-méthylamino benzylidényl)-2 indanedione-1,3] |  |  | aucune mortalité | aucune mortalité |  |
| CCNC(C)=C1C(=O)c2cc(Cl)c(Cl)cc2C1=O [COR4007, Dichloro-5,6 (éthylamino-1 éthylidényl)-2 indanedione-1,3] |  |  | aucune mortalité | aucune mortalité |  |
| CC(NC(C)C)=C1C(=O)c2cc(Cl)c(Cl)cc2C1=O [COR4016, Dichloro-5,6 (isopropylamino-1 éthylidényl)-2 indanedione-1,3] | 43 | 40 | aucune mortalité | aucune mortalité |  |
| CNC(C)=C1C(=O)c2cc(Cl)c(Cl)cc2C1=O [COR4006, Dichloro-5,6 (méthylamino-1 éthylidényl)-2 indanedione-1,3] |  |  | aucune mortalité | aucune mortalité |  |
